Among the data in US12258328B2, “6-membered heteroaryl-containing aminopyridine compounds as EGFR inhibitors” (YUHAN CORPORATION, priority 2021, dated 2025) are IC50 values, retold here.

The target in one assay is EGFR del19/T790M/C797S (Homo sapiens, UniProt P00533, C797S/DEL746-750/T790M). Description: Biochemical EGFR kinase assay (Lance Ultra TR-FRET), triple mutant del19/T790M/C797S. The gist of the method: (§1)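 Step 1: compound in kinase buffer, 0.003–10 μM. Step 2: kinase reaction 1 h at room temperature. Step 4: TR-FRET read at 615/665 nm; IC50 calculated.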
EGFR del19/T790M/C797S, sequence (P00533 with tags, fused parts or gaps DEL746-750/T790M/C797S): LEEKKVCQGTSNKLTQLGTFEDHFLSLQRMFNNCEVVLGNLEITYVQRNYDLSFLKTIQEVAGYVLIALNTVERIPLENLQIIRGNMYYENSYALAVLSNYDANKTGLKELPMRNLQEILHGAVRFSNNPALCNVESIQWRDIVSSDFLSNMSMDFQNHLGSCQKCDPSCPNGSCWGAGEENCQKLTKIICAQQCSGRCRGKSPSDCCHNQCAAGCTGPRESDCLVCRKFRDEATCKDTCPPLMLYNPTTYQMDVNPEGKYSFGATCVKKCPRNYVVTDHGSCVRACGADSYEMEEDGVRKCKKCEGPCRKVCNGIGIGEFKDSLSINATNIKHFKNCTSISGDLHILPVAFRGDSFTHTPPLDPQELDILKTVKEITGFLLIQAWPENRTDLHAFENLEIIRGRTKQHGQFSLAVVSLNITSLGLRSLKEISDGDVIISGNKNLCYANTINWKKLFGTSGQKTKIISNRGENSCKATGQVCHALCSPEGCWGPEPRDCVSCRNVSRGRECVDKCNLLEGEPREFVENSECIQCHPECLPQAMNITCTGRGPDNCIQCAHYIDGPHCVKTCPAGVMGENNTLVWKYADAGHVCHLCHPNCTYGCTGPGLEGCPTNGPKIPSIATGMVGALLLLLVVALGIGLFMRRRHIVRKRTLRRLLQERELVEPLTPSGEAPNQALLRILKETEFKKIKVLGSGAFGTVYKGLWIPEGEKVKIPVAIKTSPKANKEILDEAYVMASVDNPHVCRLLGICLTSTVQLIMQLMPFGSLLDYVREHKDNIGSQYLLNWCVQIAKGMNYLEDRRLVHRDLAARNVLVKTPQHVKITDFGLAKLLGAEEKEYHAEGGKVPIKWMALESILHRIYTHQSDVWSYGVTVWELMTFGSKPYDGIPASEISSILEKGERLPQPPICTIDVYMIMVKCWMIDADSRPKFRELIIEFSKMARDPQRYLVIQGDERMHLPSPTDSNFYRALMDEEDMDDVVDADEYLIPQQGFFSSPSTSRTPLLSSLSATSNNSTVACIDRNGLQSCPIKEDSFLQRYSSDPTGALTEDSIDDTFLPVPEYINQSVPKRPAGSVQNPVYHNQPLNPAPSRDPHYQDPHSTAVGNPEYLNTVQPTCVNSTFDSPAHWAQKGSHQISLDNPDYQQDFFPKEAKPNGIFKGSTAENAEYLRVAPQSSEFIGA
The target in the next assay is EGFR L858R/T790M/C797S (Homo sapiens, UniProt P00533, C797S/L858R/T790M). The assay is described as follows: Biochemical EGFR kinase assay (Lance Ultra TR-FRET), triple mutant L858R/T790M/C797S. In outline: as §1
For a further assay, the target named is EGFR del19/C797S (Homo sapiens, UniProt P00533, C797S/DEL746-750). The assay is described as follows: Biochemical EGFR kinase assay (Lance Ultra TR-FRET), double mutant del19/C797S. In outline:
as §1
(In general: Time-resolved FRET reads energy transfer from a long-lived donor to a nearby acceptor.)

The target of another assay is EGFR L858R/C797S (Homo sapiens, UniProt P00533, C797S/L858R). Description: Biochemical EGFR kinase assay (Lance Ultra TR-FRET), double mutant L858R/C797S. In outline:
as §1

Another assay deals with EGFR wildtype (Homo sapiens, UniProt P00533). Description: Biochemical EGFR kinase assay (Lance Ultra TR-FRET), wildtype. In outline:
as §1

[1] abbreviates: IC50 del19/T790M/C797S (nM) 100 μM ATP, 100 μM ATP.
Where [2] appears, read: Km ATP, read-out: IC50 del19/T790M/C797S (nM) Km ATP.
Where [3] appears, read: IC50 L858R/T790M/C797S (nM) 100 μM ATP, 100 μM ATP.
Setting [4] is: Km ATP, read-out: IC50 L858R/T790M/C797S (nM) Km ATP.
[5] abbreviates: IC50 del19/C797S (nM) 100 μM ATP, 100 μM ATP.
Setting [6] is: Km ATP, read-out: IC50 del19/C797S (nM) Km ATP.
[7] abbreviates: IC50 L858R/C797S (nM) 100 μM ATP, 100 μM ATP.
Where [8] appears, read: Km ATP, read-out: IC50 L858R/C797S (nM) Km ATP.
The mark [9] stands for this setting: IC50 WT (nM) 100 μM ATP, 100 μM ATP.
Setting [10] is: Km ATP, read-out: IC50 WT (nM) Km ATP.

Read-outs that look alike come from different tables or passages of the source.

EGFR wildtype, sequence (P00533 25-1210): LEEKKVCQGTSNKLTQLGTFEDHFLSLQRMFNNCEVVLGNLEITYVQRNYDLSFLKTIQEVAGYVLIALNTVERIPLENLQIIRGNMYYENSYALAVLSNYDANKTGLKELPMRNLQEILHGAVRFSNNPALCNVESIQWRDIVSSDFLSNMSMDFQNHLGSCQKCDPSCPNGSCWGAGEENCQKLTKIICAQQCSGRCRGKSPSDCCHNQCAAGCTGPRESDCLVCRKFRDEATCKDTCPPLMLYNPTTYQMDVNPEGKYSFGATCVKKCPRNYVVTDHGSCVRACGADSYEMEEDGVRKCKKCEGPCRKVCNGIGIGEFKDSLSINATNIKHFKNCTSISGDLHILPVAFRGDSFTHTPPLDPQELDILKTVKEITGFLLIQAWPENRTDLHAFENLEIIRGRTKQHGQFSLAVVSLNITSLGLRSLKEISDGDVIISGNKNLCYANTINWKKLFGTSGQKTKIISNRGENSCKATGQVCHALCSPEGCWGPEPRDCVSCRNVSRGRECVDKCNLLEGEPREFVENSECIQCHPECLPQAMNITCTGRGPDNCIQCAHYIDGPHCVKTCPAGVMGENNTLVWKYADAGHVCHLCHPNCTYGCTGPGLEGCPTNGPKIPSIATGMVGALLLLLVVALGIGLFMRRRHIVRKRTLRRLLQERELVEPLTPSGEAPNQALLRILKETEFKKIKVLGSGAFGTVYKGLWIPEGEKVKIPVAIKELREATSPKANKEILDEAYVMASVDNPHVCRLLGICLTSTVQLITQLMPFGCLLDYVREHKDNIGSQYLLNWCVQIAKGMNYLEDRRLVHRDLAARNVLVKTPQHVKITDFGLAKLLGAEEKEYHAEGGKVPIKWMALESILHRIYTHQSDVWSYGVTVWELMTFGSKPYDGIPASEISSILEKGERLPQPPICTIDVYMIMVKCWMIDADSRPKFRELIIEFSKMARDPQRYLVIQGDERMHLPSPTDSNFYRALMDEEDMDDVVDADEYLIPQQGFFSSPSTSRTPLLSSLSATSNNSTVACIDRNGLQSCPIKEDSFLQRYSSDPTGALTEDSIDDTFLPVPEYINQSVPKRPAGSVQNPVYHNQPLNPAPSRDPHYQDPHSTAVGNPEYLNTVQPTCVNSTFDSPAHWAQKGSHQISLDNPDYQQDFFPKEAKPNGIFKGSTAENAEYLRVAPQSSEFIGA
EGFR L858R/C797S, sequence (P00533 25-1210 C797S/L858R): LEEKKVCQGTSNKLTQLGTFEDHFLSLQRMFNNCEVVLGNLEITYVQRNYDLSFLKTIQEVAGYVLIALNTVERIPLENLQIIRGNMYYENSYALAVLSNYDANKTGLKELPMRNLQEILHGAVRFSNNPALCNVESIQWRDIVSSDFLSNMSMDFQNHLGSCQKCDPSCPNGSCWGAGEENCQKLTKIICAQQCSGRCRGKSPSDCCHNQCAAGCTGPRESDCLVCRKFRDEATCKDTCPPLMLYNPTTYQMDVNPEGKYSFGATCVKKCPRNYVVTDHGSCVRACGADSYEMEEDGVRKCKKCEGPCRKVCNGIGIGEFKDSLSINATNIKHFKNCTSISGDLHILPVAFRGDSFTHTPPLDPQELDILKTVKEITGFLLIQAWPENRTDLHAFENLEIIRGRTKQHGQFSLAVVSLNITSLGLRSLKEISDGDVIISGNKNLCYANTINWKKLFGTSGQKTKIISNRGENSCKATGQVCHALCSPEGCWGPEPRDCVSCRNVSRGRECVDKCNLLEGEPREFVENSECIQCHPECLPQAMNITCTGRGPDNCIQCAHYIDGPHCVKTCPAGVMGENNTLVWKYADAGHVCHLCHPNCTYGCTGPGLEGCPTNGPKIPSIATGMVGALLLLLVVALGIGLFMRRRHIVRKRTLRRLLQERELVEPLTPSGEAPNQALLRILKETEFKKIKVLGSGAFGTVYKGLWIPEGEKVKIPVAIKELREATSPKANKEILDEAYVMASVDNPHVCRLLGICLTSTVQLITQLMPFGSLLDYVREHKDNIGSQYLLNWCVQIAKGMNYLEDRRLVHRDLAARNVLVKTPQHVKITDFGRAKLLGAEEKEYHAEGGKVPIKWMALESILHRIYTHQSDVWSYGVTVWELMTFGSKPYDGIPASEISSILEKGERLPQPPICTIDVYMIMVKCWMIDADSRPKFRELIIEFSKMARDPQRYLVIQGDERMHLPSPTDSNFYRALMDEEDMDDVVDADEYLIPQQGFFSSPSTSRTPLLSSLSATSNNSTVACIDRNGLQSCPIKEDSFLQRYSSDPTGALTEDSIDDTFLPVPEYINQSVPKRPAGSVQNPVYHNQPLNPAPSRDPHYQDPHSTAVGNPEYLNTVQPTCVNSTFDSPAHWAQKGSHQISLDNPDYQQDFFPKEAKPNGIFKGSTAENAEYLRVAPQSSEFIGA
EGFR del19/C797S, sequence (P00533 with tags, fused parts or gaps DEL746-750/C797S): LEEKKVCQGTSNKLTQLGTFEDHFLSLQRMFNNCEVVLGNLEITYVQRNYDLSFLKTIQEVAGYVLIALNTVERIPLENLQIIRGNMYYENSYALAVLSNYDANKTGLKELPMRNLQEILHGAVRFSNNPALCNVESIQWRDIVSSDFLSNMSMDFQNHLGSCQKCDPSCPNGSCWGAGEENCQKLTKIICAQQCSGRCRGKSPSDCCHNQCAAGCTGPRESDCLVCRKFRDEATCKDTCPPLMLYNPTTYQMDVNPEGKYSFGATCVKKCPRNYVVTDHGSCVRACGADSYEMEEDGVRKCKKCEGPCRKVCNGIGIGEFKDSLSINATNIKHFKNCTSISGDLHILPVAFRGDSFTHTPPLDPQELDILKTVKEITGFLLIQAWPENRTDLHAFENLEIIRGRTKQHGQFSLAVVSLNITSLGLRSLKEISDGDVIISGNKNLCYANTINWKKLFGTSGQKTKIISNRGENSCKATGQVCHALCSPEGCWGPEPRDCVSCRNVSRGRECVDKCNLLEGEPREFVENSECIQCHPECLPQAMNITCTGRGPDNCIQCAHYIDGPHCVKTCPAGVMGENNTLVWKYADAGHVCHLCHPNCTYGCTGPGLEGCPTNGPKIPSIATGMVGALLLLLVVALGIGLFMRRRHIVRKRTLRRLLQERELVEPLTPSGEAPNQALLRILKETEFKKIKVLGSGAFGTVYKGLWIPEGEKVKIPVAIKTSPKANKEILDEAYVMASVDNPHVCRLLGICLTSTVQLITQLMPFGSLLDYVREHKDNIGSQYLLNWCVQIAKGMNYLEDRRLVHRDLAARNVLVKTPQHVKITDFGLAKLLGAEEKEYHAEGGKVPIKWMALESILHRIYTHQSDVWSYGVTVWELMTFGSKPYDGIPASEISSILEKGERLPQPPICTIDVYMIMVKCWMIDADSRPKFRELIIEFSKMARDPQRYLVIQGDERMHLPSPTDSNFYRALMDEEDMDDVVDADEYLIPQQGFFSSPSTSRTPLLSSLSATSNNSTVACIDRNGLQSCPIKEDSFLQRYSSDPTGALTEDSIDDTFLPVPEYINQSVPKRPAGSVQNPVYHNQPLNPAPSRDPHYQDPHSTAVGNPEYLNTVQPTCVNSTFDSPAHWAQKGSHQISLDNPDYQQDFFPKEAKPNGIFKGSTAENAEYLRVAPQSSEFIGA

On to `C[C@]1(O)CC[C@@H](Nc2cc(Nc3ccnc(-c4cnn(S(=O)(=O)C5CC5)c4)n3)ncc2-c2ccc(N3CC(F)(F)C3)nn2)CC1` [Example 66, (1s,4s)-4-((2-((2-(1-(Cyclopropylsulfonyl)-1H-pyrazol-4-yl)pyrimidin-4-yl)amino)-5-(6-(3,3-difluoroazetidin-1-yl)pyridazin-3-yl)pyridin-4-yl)amino)-1-methylcyclohexan-1-ol], for which the IC50 was 0.5 nM against EGFR del19/T790M/C797S (setting [1]); 0.3 nM at EGFR del19/T790M/C797S (setting [2]); 0.5 nM on EGFR L858R/T790M/C797S (setting [3]); 0.1 nM on EGFR L858R/T790M/C797S (setting [4]); 0.9 nM against EGFR del19/C797S (setting [5]); 0.4 nM at EGFR del19/C797S (setting [6]). Besides, the IC50 on EGFR L858R/C797S (setting [7]) was 12.2 nM; on EGFR L858R/C797S (setting [8]), 0.5 nM; against EGFR wildtype (setting [9]), above 10000 nM; at EGFR wildtype (setting [10]), 11.5 nM.

As for `C[C@]1(O)CC[C@@H](Nc2cc(Nc3ccnc(-c4cnn(S(=O)(=O)C5CC5)c4)n3)ncc2-c2ccc(N3CC4(COC4)C3)nn2)CC1` [Example 67, (1s,4s)-4-((5-(6-(2-Oxa-6-azaspiro[3.3]heptan-6-yl)pyridazin-3-yl)-2-((2-(1-(cyclopropylsulfonyl)-1H-pyrazol-4-yl)pyrimidin-4-yl)amino)pyridin-4-yl)amino)-1-methylcyclohexan-1-ol], the IC50 was 0.3 nM on EGFR del19/T790M/C797S (setting [1]); 0.3 nM on EGFR del19/T790M/C797S (setting [2]); 0.3 nM at EGFR L858R/T790M/C797S (setting [3]); 0.1 nM on EGFR L858R/T790M/C797S (setting [4]); 0.5 nM on EGFR del19/C797S (setting [5]); 0.5 nM on EGFR del19/C797S (setting [6]). Also, the IC50 against EGFR L858R/C797S (setting [7]) is 4.5 nM; at EGFR L858R/C797S (setting [8]), 0.8 nM; against EGFR wildtype (setting [9]), above 10000 nM; on EGFR wildtype (setting [10]), 3.7 nM.

Regarding `C[C@]1(O)CC[C@@H](Nc2cc(Nc3ccnc(-c4cnn(S(=O)(=O)C5CC5)c4)n3)ncc2-c2ccc(N3CCC(F)(F)CC3)nn2)CC1` [Example 68, (1s,4s)-4-((2-((2-(1-(Cyclopropylsulfonyl)-1H-pyrazol-4-yl)pyrimidin-4-yl)amino)-5-(6-(4,4-difluoropiperidin-1-yl)pyridazin-3-yl)pyridin-4-yl)amino)-1-methylcyclohexan-1-ol], the IC50 came to 0.9 nM at EGFR del19/T790M/C797S (setting [2]); 0.8 nM at EGFR L858R/T790M/C797S (setting [3]); 0.8 nM at EGFR L858R/T790M/C797S (setting [4]); 4.9 nM against EGFR del19/C797S (setting [5]); 2.8 nM on EGFR del19/C797S (setting [6]); 124 nM at EGFR L858R/C797S (setting [7]). Moreover, the IC50 at EGFR L858R/C797S (setting [8]) is 1.1 nM; on EGFR wildtype (setting [9]) it was above 10000 nM; at EGFR wildtype (setting [10]) it was 23.2 nM.

Take `O=S(=O)(C1CC1)n1cc(-c2nccc(Nc3cc(N[C@H]4CC[C@@H](CO)CC4)c(-c4ccc(N5CCC(F)(F)CC5)nn4)cn3)n2)cn1` [Example 69, ((1s,4s)-4-((2-((2-(1-(Cyclopropylsulfonyl)-1H-pyrazol-4-yl)pyrimidin-4-yl)amino)-5-(6-(4,4-difluoropiperidin-1-yl)pyridazin-3-yl)pyridin-4-yl)amino)cyclohexyl)methanol]: the IC50 at EGFR del19/T790M/C797S (setting [1]) turned out to be 1.6 nM; on EGFR del19/T790M/C797S (setting [2]), 1.9 nM; against EGFR L858R/T790M/C797S (setting [3]), 1.4 nM; on EGFR L858R/T790M/C797S (setting [4]), 0.8 nM; against EGFR del19/C797S (setting [5]), 5.3 nM; at EGFR del19/C797S (setting [6]) it was 2.4 nM. The IC50 against EGFR L858R/C797S (setting [7]) was 52.7 nM; at EGFR L858R/C797S (setting [8]), 1.4 nM; at EGFR wildtype (setting [9]), 4780 nM; at EGFR wildtype (setting [10]), 14.5 nM.

With `O=S(=O)(C1CC1)n1cc(-c2nccc(Nc3cc(N[C@H]4CC[C@@H](CO)CC4)c(-c4cnc(N5CCC(F)(F)CC5)cn4)cn3)n2)cn1` [Example 70, ((1s,4s)-4-((2-((2-(1-(Cyclopropylsulfonyl)-1H-pyrazol-4-yl)pyrimidin-4-yl)amino)-5-(5-(4,4-difluoropiperidin-1-yl)pyrazin-2-yl)pyridin-4-yl)amino)cyclohexyl)methanol], the IC50 at EGFR del19/T790M/C797S (setting [1]) was 3.9 nM; on EGFR L858R/T790M/C797S (setting [3]) it was 4.9 nM; at EGFR del19/C797S (setting [5]) it was 13.1 nM; against EGFR L858R/C797S (setting [7]), 81.1 nM; against EGFR wildtype (setting [9]), above 10000 nM.

Take `CC(C)(O)[C@H]1CC[C@@H](Nc2cc(Nc3ccnc(-c4cnn(S(=O)(=O)C5CC5)c4)n3)ncc2-c2ccc(N3CCC(F)(F)CC3)nn2)CC1` [Example 71, 2-((1s,4s)-4-((2-((2-(1-(Cyclopropylsulfonyl)-1H-pyrazol-4-yl)pyrimidin-4-yl)amino)-5-(6-(4,4-difluoropiperidin-1-yl)pyridazin-3-yl)pyridin-4-yl)amino)cyclohexyl)propan-2-ol]: the IC50 was 4.5 nM on EGFR del19/T790M/C797S (setting [1]); 4.1 nM at EGFR L858R/T790M/C797S (setting [3]); 44.2 nM on EGFR del19/C797S (setting [5]); 355 nM on EGFR L858R/C797S (setting [7]); above 10000 nM against EGFR wildtype (setting [9]).

`CC(C)(O)[C@H]1CC[C@@H](Nc2cc(Nc3ccnc(-c4cnn(S(=O)(=O)C5CC5)c4)n3)ncc2-c2cnc(N3CCC(F)(F)CC3)cn2)CC1` [Example 72, 2-((1s,4s)-4-((2-((2-(1-(Cyclopropylsulfonyl)-1H-pyrazol-4-yl)pyrimidin-4-yl)amino)-5-(5-(4,4-difluoropiperidin-1-yl)pyrazin-2-yl)pyridin-4-yl)amino)cyclohexyl)propan-2-ol]: the IC50 against EGFR del19/T790M/C797S (setting [1]) is 12.7 nM; on EGFR del19/T790M/C797S (setting [2]), 10.7 nM; against EGFR L858R/T790M/C797S (setting [3]), 12.2 nM; on EGFR L858R/T790M/C797S (setting [4]), 1.7 nM; on EGFR del19/C797S (setting [5]), 21.7 nM; at EGFR del19/C797S (setting [6]), 22.4 nM. For the same compound, the IC50 against EGFR L858R/C797S (setting [7]) was 2430 nM; at EGFR L858R/C797S (setting [8]), 61.4 nM; against EGFR wildtype (setting [9]) it was above 10000 nM; at EGFR wildtype (setting [10]), 84.2 nM.

For the compound `CN(C)C[C@H]1CC[C@@H](Nc2cc(Nc3ccnc(-c4cnn(S(=O)(=O)C5CC5)c4)n3)ncc2-c2ccc(N3CCC(F)(F)CC3)nn2)CC1` [Example 73, N^2-(2-(1-(Cyclopropylsulfonyl)-1H-pyrazol-4-yl)pyrimidin-4-yl)-5-(6-(4,4-difluoropiperidin-1-yl)pyridazin-3-yl)-N^4-((1s,4s)-4-((dimethylamino)methyl)cyclohexyl)pyridine-2,4-diamine], the IC50 on EGFR del19/T790M/C797S (setting [1]) stood at 0.7 nM; at EGFR del19/T790M/C797S (setting [2]), 0.4 nM; against EGFR L858R/T790M/C797S (setting [3]), 0.5 nM; on EGFR L858R/T790M/C797S (setting [4]), 0.2 nM; against EGFR del19/C797S (setting [5]) it was 0.5 nM; at EGFR del19/C797S (setting [6]), 0.4 nM. The IC50 against EGFR L858R/C797S (setting [7]) was 16.3 nM; at EGFR wildtype (setting [9]), 562 nM; on EGFR wildtype (setting [10]), 2.2 nM.

`CN(C)C[C@H]1CC[C@@H](Nc2cc(Nc3ccnc(-c4cnn(S(=O)(=O)C5CC5)c4)n3)ncc2-c2cnc(N3CCC(F)(F)CC3)cn2)CC1` [Example 74, N^2-(2-(1-(Cyclopropylsulfonyl)-1H-pyrazol-4-yl)pyrimidin-4-yl)-5-(5-(4,4-difluoropiperidin-1-yl)pyrazin-2-yl)-N^4-((1s,4s)-4-((dimethylamino)methyl)cyclohexyl)pyridine-2,4-diamine]: the IC50 against EGFR del19/T790M/C797S (setting [1]) came to 2.2 nM; at EGFR del19/T790M/C797S (setting [2]), 1.6 nM; against EGFR L858R/T790M/C797S (setting [3]), 2.8 nM; on EGFR L858R/T790M/C797S (setting [4]) it was 0.6 nM; on EGFR del19/C797S (setting [5]), 2.4 nM; on EGFR del19/C797S (setting [6]), 0.7 nM. The IC50 against EGFR L858R/C797S (setting [7]) was 43.9 nM; at EGFR L858R/C797S (setting [8]) it was 3.2 nM; on EGFR wildtype (setting [9]), 1610 nM; at EGFR wildtype (setting [10]), 9.1 nM.

Turning to `C[C@]1(O)CC[C@@H](Nc2cc(Nc3ccnc(-c4cnn(S(=O)(=O)C5CC5)c4)n3)ncc2-c2cnc(N3CCC(F)(F)CC3)cn2)CC1` [Example 75, (1s,4s)-4-((2-((2-(1-(Cyclopropylsulfonyl)-1H-pyrazol-4-yl)pyrimidin-4-yl)amino)-5-(5-(4,4-difluoropiperidin-1-yl)pyrazin-2-yl)pyridin-4-yl)amino)-1-methylcyclohexan-1-ol], the IC50 on EGFR del19/T790M/C797S (setting [1]) was 15.2 nM; at EGFR del19/T790M/C797S (setting [2]) it was 8.7 nM; on EGFR L858R/T790M/C797S (setting [3]), 15.2 nM; at EGFR L858R/T790M/C797S (setting [4]), 6.6 nM; against EGFR del19/C797S (setting [5]), 33.2 nM; on EGFR del19/C797S (setting [6]), 34 nM. The IC50 on EGFR L858R/C797S (setting [7]) is 313 nM; at EGFR L858R/C797S (setting [8]), 68.9 nM; on EGFR wildtype (setting [9]), above 10000 nM; on EGFR wildtype (setting [10]), 143 nM.

Consider `C[C@]1(O)CC[C@@H](Nc2cc(Nc3ccnc(-c4cnn(S(=O)(=O)C5CC5)c4)n3)ncc2-c2cc(C(F)F)ccn2)CC1` [Example 76, (1s,4s)-4-((6′-((2-(1-(Cyclopropylsulfonyl)-1H-pyrazol-4-yl)pyrimidin-4-yl)amino)-4-(difluoromethyl)-[2,3′-bipyridin]-4′-yl)amino)-1-methylcyclohexan-1-ol], for which the IC50 worked out at 1 nM at EGFR del19/T790M/C797S (setting [1]); 2 nM on EGFR del19/T790M/C797S (setting [2]); 0.8 nM at EGFR L858R/T790M/C797S (setting [3]); 0.9 nM on EGFR L858R/T790M/C797S (setting [4]); 2 nM on EGFR del19/C797S (setting [5]); 1.6 nM at EGFR del19/C797S (setting [6]). Also, the IC50 is 14.5 nM at EGFR L858R/C797S (setting [7]), 2.1 nM at EGFR L858R/C797S (setting [8]), above 10000 nM at EGFR wildtype (setting [9]) and 8.1 nM on EGFR wildtype (setting [10]).
